From patent US7528113B2, “Method and composition for the treatment of adenoviral ocular infections” (priority 1999, dated 2009)
Read-outs that look alike come from different tables or passages of the source.

Legend:
[1] = system: adenovirus subtype 37 (Ad37); assay: Interference of the binding of Ad37 with the first step cellular receptor; format: cell-based
Excerpt: (§1) Interference of the binding of adenovirus subtype 37 (Ad37) with the first step cellular receptor was studied using dextran sulphate and glycosaminoglycans, such as heparin and heparan sulphates. […] It was thus confirmed that the cellular receptor for Ad37 is (2-3) linked sialic acid.

[2] = system: adenovirus type 19a binding to Chang C conjunctival cells; assay: Inhibition of adenovirus type 19a binding to Chang C conjunctival cells; format: cell-based
[3] = system: adenovirus type 8 binding to Chang C conjunctival cells; assay: Inhibition of adenovirus type 8 binding to Chang C conjunctival cells; format: cell-based
[4] = system: Ad37 binding to Chang C conjunctival cells; assay: microbe, parasite or virus in culture; format: cell-based, adenovirus; conditions: for Interference with the binding of Ad37 to sialic acid expressing cells: 160 mmol concentrations
Excerpt: as §1
The effect of glycoproteins to inhibit Ad37 binding to Chang C conjunctival cells was investigated using the following glycoproteins: fetuin, mucin, orosomucoid and glycophorin A. The results are presented in table 2.
The inventors confirmed the inventive concept by determining the inhibition achieved with different carbohydrates, using adenovirus type 37 and Chang C conjunctival cells.
All data are visualised as the dose required for 50% inhibition of adenovirus binding and the maximum inhibition of adenovirus binding.

[5] = system: Ad37 virus; assay: Binding of 125I-labeled Ad37 to glycosphingolipids; design: species or system adenovirus; conditions: preliminary results, thin layer chromatography, FIG. 3
[6] = system: Ad37 binding to human epithelial A549 cells; assay: Ad37 binding to A549 cells; format: cell-based, adenovirus; conditions: pre-treatment / pre-incubation of the cells; FIG. 2
Excerpt: Binding to human epithelial A549 cells was investigated. […] This means that Ad8, Ad19a and Ad37, but not types 9 and 19p infect A549 cells by binding to cell surface sialic acid.

[7] = system: Ad37 binding to Chinese hamster ovary cells; assay: Ad37 binding to Chinese hamster ovary cells that do not express CAR; format: cell-based, adenovirus; conditions: Chinese hamster ovary cells not expressing CAR; see FIG. 2
Excerpt: as §1

[8] = system: adenoviral adhesion; assay: Inhibition of adenoviral adhesion by multivalent ligands; format: cell-based, adenovirus; conditions: multivalent ligand
Excerpt: Monovalent analogues of the sialic acid receptor will have to cover most of the twelve fibres at each of the twelve comers of the virus particle to enable efficient blocking of the binding of the virus particle to the host cell receptors. Divalent or multivalent analogues will, by interacting with a few fibres, enable aggregation of numerous virus particles into a lattice. This will hamper or inhibit virus infection with a higher efficiency, i.e. more inhibition per μmole of ligand.

[9] = Chang cells, sialylated glycoproteins, read-out: Concentration of glycoprotein causing 50% inhibition of Ad37 binding
[10] = read-out: Concentration of carbohydrate causing 50% inhibition of Ad37 binding
[11] = Chang cells, sialic acid carbohydrates, read-out: Concentration of carbohydrate causing 50% inhibition of Ad37 binding

Molecule: heparin
- Impairment of Ad37 binding by negatively charged molecules [1]: could impair binding of the virus
- Maximal inhibition of binding in % ([2]; 670 μM heparin): 90%
- IC50 ([2]; Chang C conjunctival cells, read-out: Concentration of heparin causing 50% inhibition of binding): 25 µM
- Maximal inhibition of binding in % ([3]; adenovirus type 8, 670 μM heparin): 92%
- IC50 ([3]; adenovirus type 8, Chang C conjunctival cells, read-out: Concentration of heparin causing 50% inhibition of binding): 30 µM
- Maximal inhibition of binding in % ([4]; adenovirus type 37, 670 μM heparin): 87%
- IC50 ([4]; adenovirus type 37, Chang C conjunctival cells, read-out: Concentration of heparin causing 50% inhibition of binding): 0.02 mM

Molecule: Orosomucoid: sialylated, negatively charged glycoprotein
- Maximal inhibition of Ad37 binding in % ([4]; 500 μM glycoprotein): 77%
- IC50 [4, 9]: 0.075 mM

Molecule: CC(=O)N[C@H]1[C@H]([C@H](O)[C@H](O)CO)OC(O)(C(=O)O)C[C@@H]1O (stereo partly drawn) [N-acetyl-neuraminic acid]
- Inhibiting binding of Ad37 to sialic acid-expressing cells (in words) [4]: effective in inhibiting binding
- Maximal inhibition of Ad37 binding in % ([4]; 160 mM carbohydrate): 82%
- IC50 [4, 10]: 18 mM

Molecule: NeuAcα3Galβ3GalNAcβ4(NeuAcα3)Galβ4Glcβ1 [NeuAc-GD1a]
- Ad37 virus binding to the structure [5]: effective for Ad37 virus binding

Molecule: CC(=O)N[C@H]1[C@H]([C@H](O)[C@H](O)CO)O[C@@](O[C@H]2[C@@H](O)[C@@H](CO)O[C@@H](O[C@H]3[C@H](O[C@@H]4O[C@@H](C)[C@@H](O)[C@@H](O)[C@@H]4O)[C@@H](O)C(O)O[C@@H]3CO)[C@@H]2O)(C(=O)O)C[C@@H]1O (stereo partly drawn) [N-Acetyl Neuraminyl-3-Fucosyl Lactose, α-Neu-5-Ac-(2-3)-β-D-Gal(1-4)-(α-Fuc-(1-3))-Glc]
- Inhibiting binding of Ad37 to sialic acid-expressing cells (in words) [4]: effective in inhibiting binding
- IC50 [4, 11]: 5 mM

Molecule: CC(=O)N[C@@H]1[C@@H](O)[C@H](O)[C@@H](CO)O[C@H]1O [acetyl glucose amine, reference compound]
- Interference with the binding of Ad37 to sialic acid expressing cells [4]: did not interfere with the binding

Molecule: GalNAcβ4(NeuAcα3)Galβ4Glcβ1 [NeuAcGM2]
- Ad37 virus binding to the structure [5]: effective for Ad37 virus binding

Molecule: OC[C@H]1O[C@@H](O[C@H]2[C@H](O)[C@@H](O)C(O)O[C@@H]2CO)[C@H](O)[C@@H](O)[C@H]1O (stereo partly drawn) [lactose, reference compound]
- Interference with the binding of Ad37 to sialic acid expressing cells [4]: did not interfere with the binding

Molecule: Colominic acid
- Inhibiting binding of Ad37 to sialic acid-expressing cells (in words) [4]: effective in inhibiting binding
- Maximal inhibition of Ad37 binding in % ([4]; 160 mM carbohydrate): 79%

Molecule: N-acetyl-neuraminyllactose
- Inhibiting binding of Ad37 to sialic acid-expressing cells (in words) [4]: effective in inhibiting binding
- Maximal inhibition of Ad37 binding in % ([4]; 160 mM carbohydrate): 95%
- Inhibition of Ad37 binding (in words) ([4]; 160 mM concentration): almost total inhibition
- IC50 [4, 11]: 5 mM

Molecule: CC(=O)N[C@H]1[C@H]([C@H](O)[C@H](O)CO)O[C@@](OC[C@H]2O[C@@H](O[C@H]3[C@H](O)[C@@H](NC(C)=O)C(O)O[C@@H]3CO)[C@H](O)[C@@H](O)[C@H]2O)(C(=O)O)C[C@@H]1O (stereo partly drawn) [α-Neu-5Ac-(2-6)-β-D-Gal-(1-4)-D-GlcNAc]
- Inhibiting binding of Ad37 to sialic acid-expressing cells (in words) [4]: effective in inhibiting binding
- IC50 [4, 11]: 7 mM

Molecule: Fetuin: sialylated glycoprotein
- Maximal inhibition of Ad37 binding in % ([4]; 500 μM glycoprotein): 62%
- IC50 [4, 9]: 0.42 mM

Molecule: dextran sulphate
- Impairment of Ad37 binding by negatively charged molecules [1]: could impair binding of the virus

Molecule: CC(=O)N[C@@H]1[C@@H](O)[C@@H](O)[C@@H](CO)O[C@@H]1O [acetyl galactose amine, reference compound]
- Interference with the binding of Ad37 to sialic acid expressing cells [4]: did not interfere with the binding

Molecule: wheat germ agglutinin
- Inhibition of Ad37 binding to A549 cells [6]: is inhibited
- Inhibition/blocking of Ad37 binding [7]: blocked the binding

Molecule: Galβ3GalNAcβ4(NeuAcα8NeuAcα3)Galβ4Glcβ1 [NeuAc-GD1b]
- Ad37 virus binding to the structure [5]: effective for Ad37 virus binding

Molecule: CC(=O)N[C@H]1[C@H]([C@H](O)[C@H](O)CO)O[C@@](O[C@H]2[C@@H](O)[C@@H](CO)O[C@@H](O[C@H]3[C@H](O)[C@@H](NC(C)=O)C(O)O[C@@H]3CO)[C@@H]2O)(C(=O)O)C[C@@H]1O (stereo partly drawn) [α-NeuNAc-(2-3)-β-D-Gal-(1-4)-D-GlcNAc]
- Inhibiting binding of Ad37 to sialic acid-expressing cells (in words) [4]: effective in inhibiting binding
- IC50 [4, 11]: 5 mM

Molecule: Mucin
- Inhibiting adenoviral adhesion [8]: very effective
- Maximal inhibition of Ad37 binding in % ([4]; 500 μM glycoprotein): 89%
- IC50 [4, 9]: 0.008 mM

Molecule: heparan sulphates
- Impairment of Ad37 binding by negatively charged molecules [1]: could impair binding of the virus

Molecule: O=C(CO)N[C@H]1[C@H]([C@H](O)[C@H](O)CO)OC(O)(C(=O)O)C[C@@H]1O (stereo partly drawn) [N-glycolyl-neuraminic acid]
- Inhibiting binding of Ad37 to sialic acid-expressing cells (in words) [4]: effective in inhibiting binding
- Maximal inhibition of Ad37 binding in % ([4]; 160 mM carbohydrate): 91%
- IC50 [4, 10]: 40 mM

Molecule: CC(=O)NC1C(O)CC(OC2C(O)C(CO)OC(OC3C(O)C(CO)OC(O)C3NC(C)=O)C2O)(C(=O)O)OC1C(O)C(O)CO [α-NeuAc-(2-3)-β-D-Gal-(1-3)-β-GalNAc]
- Ad37 virus binding to the structure [5]: effective for Ad37 virus binding

Molecule: O=C[C@H](O)[C@@H](O)[C@@H](O)[C@H](O)CO [galactose, reference compound]
- Interference with the binding of Ad37 to sialic acid expressing cells [4]: did not interfere with the binding

Molecule: CC(=O)N[C@H]1[C@@H](O)[C@H](O)[C@@H](CO)O[C@@H]1O [acetyl mannose amine, reference compound]
- Interference with the binding of Ad37 to sialic acid expressing cells [4]: did not interfere with the binding

Molecule: GalNAcβ4(NeuAcα8NeuAcα3)Galβ4Glcβ1 [NeuAc-GD2]
- Ad37 virus binding to the structure [5]: effective for Ad37 virus binding

B1: Glycophorin A: sialylated glycoprotein (protein, UniProt P02724 20-150, looked up)
Glycophorin-A: LSTTEVAMHTSTSSSVTKSYISSQTNDTHKRDTYAATPRAHEVSEISVRTVYPPEEETGERVQLAHHFSEPEITLIIFGVMAGVIGTILLISYGIRRLIKKSPSDVKPLPSPDTDVPLSSVEIENPETSDQ
- Maximal inhibition of Ad37 binding in % ([4]; 500 μM glycoprotein): 45%
- IC50 [4, 9]: > 0.5 mM
